Source: US5635593A (priority 1995, dated 1997)
“Also recorded” adds a separate entry of the source. Numbered stars: 1 amine (or outer) side, 2 acyl side, 3 side chain; on linkers, the order of the positions; unused ones are H or OH. Bridge positions count the residues as written; N and C are the ends. Square brackets hold non-standard residues; d marks the D form. Peptide text beside a SMILES is read from it. I, II: the chains in the order shown. BMH = O=C1CC([*:1])C(=O)N1CCCCCCN1C(=O)CC([*:2])C1=O; Oic = O=C(O)[C@@H]1C[C@@H]2CCCC[C@@H]2N1; Hyp = O=C(O)[C@@H]1C[C@@H](O)CN1; dTic = O=C(O)[C@H]1Cc2ccccc2CN1

What was measured:
[1] = molecular target: T1, BK2 -receptor (Rattus norvegicus, UniProt P25023); experiment: rat uterus (RU) in vitro, antagonism of BK; conditions: against BK
T1 construct: guinea-pig ileum (GPI), rat uterus (RU) and rabbit jugular vein (RJV); from tissue; host or cells: rat uterus
T1 sequence (P25023 1-396): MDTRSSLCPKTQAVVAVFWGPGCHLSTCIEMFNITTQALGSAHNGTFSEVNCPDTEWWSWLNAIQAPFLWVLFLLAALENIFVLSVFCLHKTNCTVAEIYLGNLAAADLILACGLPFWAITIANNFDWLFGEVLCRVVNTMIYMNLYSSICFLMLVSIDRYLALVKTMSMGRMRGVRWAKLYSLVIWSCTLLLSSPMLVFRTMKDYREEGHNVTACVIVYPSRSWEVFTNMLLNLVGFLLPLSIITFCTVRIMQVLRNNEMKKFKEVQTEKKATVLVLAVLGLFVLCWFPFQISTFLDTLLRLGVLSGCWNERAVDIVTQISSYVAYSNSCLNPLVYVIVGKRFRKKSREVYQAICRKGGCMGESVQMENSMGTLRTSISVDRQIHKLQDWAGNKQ
Experimental: Thus, in vitro studies were performed on standard assay systems, namely, guinea-pig ileum (GPI), rat uterus (RU) and rabbit jugular vein (RJV). […] The potency of each compound was assessed as a pA2 value according to the method of Arunlakshana & Schild, Br. J. Pharmacol. Chemother., 14:48-58 (1959). The pA2 can be defined as the negative logarithm of the molar concentration of the antagonist in the presence of which the potency of the agonist is reduced two-fold, i.e., twice the amount of agonist is required to produce a given response in the presence of, than in the absence of, the antagonist. A high potency of antagonism is indicated by a high pA2 value. i.e., a low concentration of antagonist is effective.
The percentage recovery (% Rec) was also determined for compounds with respect to each assay.
With respect to duration of activity, it is noted that after exposure to the highest concentration of antagonist, each tissue was washed extensively and then assessed for recovery from the antagonist effect.
Potency in the rat uterus assay was assessed as described above and pA2 values determined.

[2] = molecular target: T2, BK1 receptor (Oryctolagus cuniculus, UniProt P48748); experiment: blood pressure response to BK1 agonist in LPS-pretreated rabbits; type: in vivo, rabbit; parameters: from tissue; host or cells: whole animal (rabbit, LPS-pretreated), blood pressure response; key to observed antagonist activity BK1, 1 / observed antagonist activity BK1, 3 / observed antagonist activity BK1, 10: +: complete blockade of the blood pressure response to the appropriate agonist; ±: partial blockade; -: no observable effect at the dose indicated; conditions: for observed antagonist activity BK1, 1: 1 μg kg^-1 min^-1; for observed antagonist activity BK1, 1 / observed antagonist activity BK1, 3 / observed antagonist activity BK1, 10: rabbits given LPS (10 μg) 20 hours before; for observed antagonist activity BK1, 3: 3 μg kg^-1 min^-1; for observed antagonist activity BK1, 10: 10 μg kg^-1 min^-1
T2 sequence (P48748 1-352): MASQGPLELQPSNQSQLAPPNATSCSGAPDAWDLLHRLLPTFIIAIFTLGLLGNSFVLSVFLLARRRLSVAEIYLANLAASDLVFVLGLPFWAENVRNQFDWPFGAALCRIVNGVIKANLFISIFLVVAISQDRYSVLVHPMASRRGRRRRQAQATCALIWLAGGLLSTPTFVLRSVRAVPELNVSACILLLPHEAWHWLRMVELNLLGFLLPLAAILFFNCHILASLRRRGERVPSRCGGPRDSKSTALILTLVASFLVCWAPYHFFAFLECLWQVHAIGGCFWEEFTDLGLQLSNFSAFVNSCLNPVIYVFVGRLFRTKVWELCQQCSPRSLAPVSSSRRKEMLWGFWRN
Description: (§1) That heterodimeric constructs block the activities attributable to two different receptor populations simultaneously when administered to an intact animal has been known using a standard assay of BK2 and BK1 receptor activity (see, deBlois, Bouthillier, and Marceau, Brit. J. Pharm., 103, 1057-1066, 1991). In normal rabbits, no changes in systemic arterial blood pressure can be detected in response to challenges with BK1 receptor agonists. There is, however, a predictable and reproducible response to BK2 agonists constituatively present. After stimulation with LPS BK1 receptor activity will develop over time such that profound responses to doses of BK1 agonists that were previously inconsequential in nature are observed after a 3-4 hour period. Responses to BK2 agonists are unchanged in these animals. At this point, one can test directly the ability to block both BK1 and BK2 mediated reductions in systemic blood pressure simultaneously with a heterodimeric antagonist.
(§2) FIGS. 8a, b and c comprise actual blood pressure traces from a series of experiments designed to illustrate the ability of a representative heterodimer (CP-0364) to block both BK1 - and BK2 - mediated hypotensive responses simultaneously.
(§3) The expected antagonist activity is based on the data summarized in Tables K and L. The in vivo experimental data reported are qualitative measurements of antagonist activity at three different doses (1, 3 and 10 μg kg^-1 min^-1) in rabbits given a sub-lethal dose of LPS (10 μg), 20 hours before initiation of the experiment.

[3] = molecular target: T3, BK2 receptor (Oryctolagus cuniculus, UniProt Q28642); experiment: blood pressure response to BK2 agonist in LPS-pretreated rabbits; type: in vivo, rabbit; parameters: key to observed antagonist activity BK2, 1 / observed antagonist activity BK2, 3 / observed antagonist activity BK2, 10: +: complete blockade of the blood pressure response to the appropriate agonist; ±: partial blockade; -: no observable effect at the dose indicated; conditions: for observed antagonist activity BK2, 1: 1 μg kg^-1 min^-1; for observed antagonist activity BK2, 1 / observed antagonist activity BK2, 3 / observed antagonist activity BK2, 10: rabbits given LPS (10 μg) 20 hours before; for observed antagonist activity BK2, 3: 3 μg kg^-1 min^-1; for observed antagonist activity BK2, 10: 10 μg kg^-1 min^-1
T3 construct: from tissue; host or cells: whole animal (rabbit, LPS-pretreated), blood pressure response
T3 sequence (Q28642 1-367): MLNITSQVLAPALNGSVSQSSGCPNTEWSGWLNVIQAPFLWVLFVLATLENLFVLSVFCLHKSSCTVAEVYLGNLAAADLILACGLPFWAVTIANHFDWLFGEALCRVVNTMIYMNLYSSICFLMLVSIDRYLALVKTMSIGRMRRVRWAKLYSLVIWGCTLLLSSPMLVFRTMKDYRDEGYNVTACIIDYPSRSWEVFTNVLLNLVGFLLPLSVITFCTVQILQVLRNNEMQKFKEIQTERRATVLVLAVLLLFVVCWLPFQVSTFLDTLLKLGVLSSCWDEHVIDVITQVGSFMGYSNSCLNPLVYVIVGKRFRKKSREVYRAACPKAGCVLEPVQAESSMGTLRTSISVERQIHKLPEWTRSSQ
Description: as §1, §2, §3

[4] = rabbits after endotoxin pre-treatment, agonist i.v. bolus

SMILES	pA2 rat uterus (BK2) [1]	observed antagonist activity BK1, 1 [2]	observed antagonist activity BK1, 3 [2]	observed antagonist activity BK1, 10 [2]	block of BK1-mediated hypotensive response (FIG. 8) [2, 4]	observed antagonist activity BK2, 1 [3]	observed antagonist activity BK2, 3 [3]	observed antagonist activity BK2, 10 [3]	block of BK2-mediated hypotensive response (FIG. 8) [3, 4]
CC(C)C[C@H](NC(=O)[C@@H]1CCCN1C(=O)[C@H](CO)NC(=O)[C@H](Cc1ccccc1)NC(=O)CNC(=O)[C@@H]1C[C@@H](O)CN1C(=O)[C@@H]1CCCN1C(=O)[C@H](CSC1CC(=O)N(CCCCCCN2C(=O)CC(SC[C@H](NC(=O)[C@H](Cc3ccccc3)NC(=O)CNC(=O)[C@@H]3C[C@@H](O)CN3C(=O)[C@@H]3CCCN3C(=O)[C@H](CCCNC(=N)N)NC(=O)[C@H](N)CCCNC(=N)N)C(=O)N[C@H](Cc3ccccc3)C(=O)N[C@@H](CC(C)C)C(=O)N[C@@H](CCCNC(=N)N)C(=O)O)C2=O)C1=O)NC(=O)[C@@H](N)CCCCN)C(=O)O (some centres unmarked) [CP-0382] (HELM PEPTIDE1{[dR].R.P.[Hyp].G.F.C.[dF].L.R}|PEPTIDE2{K.C.P.[Hyp].G.F.S.P.L}|CHEM1{[O=C1CC([*:1])C(=O)N1CCCCCCN1C(=O)CC([*:2])C1=O]}$PEPTIDE1,CHEM1,7:R3-1:R1|PEPTIDE2,CHEM1,2:R3-1:R2$$$V2.0; N-terminus and C-terminus assumed)	Agonist; also recorded: substantial partial agonism								
CC(C)C[C@H](NC(=O)[C@@H]1CCCN1C(=O)[C@H](CO)NC(=O)[C@H](Cc1ccccc1)NC(=O)CNC(=O)[C@@H]1C[C@@H](O)CN1C(=O)[C@@H]1CCCN1C(=O)[C@H](CSC1CC(=O)N(CCCCCCN2C(=O)CC(SC[C@H](NC(=O)[C@H](Cc3ccccc3)NC(=O)CNC(=O)[C@@H]3C[C@@H](O)CN3C(=O)[C@@H]3CCCN3C(=O)[C@H](CCCNC(=N)N)NC(=O)[C@H](N)CCCNC(=N)N)C(=O)N[C@H](Cc3ccccc3)C(=O)N[C@@H](CC(C)C)C(=O)N[C@@H](CCCNC(=N)N)C(=O)O)C2=O)C1=O)NC(=O)[C@H](N)CCCNC(=N)N)C(=O)O (some centres unmarked) [CP-0364] (HELM PEPTIDE1{[dR].R.P.[Hyp].G.F.C.[dF].L.R}|PEPTIDE2{[dR].C.P.[Hyp].G.F.S.P.L}|CHEM1{[O=C1CC([*:1])C(=O)N1CCCCCCN1C(=O)CC([*:2])C1=O]}$PEPTIDE1,CHEM1,7:R3-1:R1|PEPTIDE2,CHEM1,2:R3-1:R2$$$V2.0; N-terminus and C-terminus assumed)		+	+	+	capable of blocking the response profile to both agonists simultaneously	+	+	+	capable of blocking the response profile to both agonists simultaneously
CC(C)C[C@H](NC(=O)[C@@H](Cc1ccccc1)NC(=O)[C@H](CSC1CC(=O)N(CCCCN2C(=O)CC(SC[C@H](NC(=O)[C@H](Cc3ccccc3)NC(=O)CNC(=O)[C@@H]3C[C@@H](O)CN3C(=O)[C@@H]3CCCN3C(=O)[C@H](CCCNC(=N)N)NC(=O)[C@H](N)CCCNC(=N)N)C(=O)N[C@H](Cc3ccccc3)C(=O)N[C@@H](CC(C)C)C(=O)N[C@@H](CCCNC(=N)N)C(=O)O)C2=O)C1=O)NC(=O)[C@H](Cc1ccccc1)NC(=O)CNC(=O)[C@@H]1C[C@@H](O)CN1C(=O)[C@@H]1CCCN1C(=O)[C@H](CCCNC(=N)N)NC(=O)[C@H](N)CCCNC(=N)N)C(=O)N[C@@H](CCCNC(=N)N)C(=O)O (some centres unmarked) [CP-0209] (HELM PEPTIDE1{[dR].R.P.[Hyp].G.F.C.[dF].L.R}|PEPTIDE2{[dR].R.P.[Hyp].G.F.C.[dF].L.R}|CHEM1{[O=C1CC([*:1])C(=O)N1CCCCN1C(=O)CC([*:2])C1=O]}$PEPTIDE1,CHEM1,7:R3-1:R1|PEPTIDE2,CHEM1,7:R3-1:R2$$$V2.0)	8.2 ± 0.2								
CC(C)C[C@H](NC(=O)[C@@H]1CCCN1C(=O)[C@H](CO)NC(=O)[C@H](Cc1ccccc1)NC(=O)CNC(=O)[C@@H]1CCCN1C(=O)[C@@H]1CCCN1C(=O)[C@H](CCCNC(=N)N)NC(=O)[C@@H](N)CCCCN)C(=O)O [CP-0298, des ARG^9-[LYS^0, LEU^8]-BK, reference compound]		+	+	+		-	-	-	
CC(C)C[C@H](NC(=O)[C@@H](Cc1ccccc1)NC(=O)[C@H](CSC1CC(=O)N(CCCCCCN2C(=O)CC(SC[C@H](NC(=O)[C@@H](Cc3c[nH]c4ccccc34)NC(=O)[C@H](Cc3ccc(O)cc3)NC(=O)[C@@H](N)CC(=O)O)C(=O)N[C@H](Cc3c[nH]c4ccccc34)C(=O)N[C@H](Cc3c[nH]c4ccccc34)C(=O)N[C@@H](CCCNC(=N)N)C(N)=O)C2=O)C1=O)NC(=O)[C@H](Cc1ccccc1)NC(=O)CNC(=O)[C@@H]1C[C@@H](O)CN1C(=O)[C@@H]1CCCN1C(=O)[C@H](CCCNC(=N)N)NC(=O)[C@H](N)CCCNC(=N)N)C(=O)N[C@@H](CCCNC(=N)N)C(=O)O (some centres unmarked) [CP-0414] (HELM PEPTIDE1{[dR].R.P.[Hyp].G.F.C.[dF].L.R}|PEPTIDE2{D.Y.[dW].C.[dW].[dW].R.[am]}|CHEM1{[O=C1CC([*:1])C(=O)N1CCCCCCN1C(=O)CC([*:2])C1=O]}$PEPTIDE1,CHEM1,7:R3-1:R1|PEPTIDE2,CHEM1,4:R3-1:R2$$$V2.0)	7.8 ± 0.1								
N=C(N)NCCC[C@@H](N)C(=O)N[C@@H](CCCNC(=N)N)C(=O)N1CCC[C@H]1C(=O)N1C[C@H](O)C[C@H]1C(=O)NCC(=O)N[C@@H](Cc1ccccc1)C(=O)N[C@@H](CSC1CC(=O)N(CCCCCCN2C(=O)CC(SC[C@H](NC(=O)[C@H](N)CCCNC(=N)N)C(=O)N3CCC[C@H]3C(=O)N3C[C@H](O)C[C@H]3C(=O)NCC(=O)N[C@@H](Cc3ccccc3)C(=O)N[C@@H](CO)C(=O)N3Cc4ccccc4C[C@@H]3C(=O)N3[C@H](C(=O)O)C[C@@H]4CCCC[C@@H]43)C2=O)C1=O)C(=O)N1Cc2ccccc2C[C@@H]1C(=O)N1[C@H](C(=O)N[C@@H](CCCNC(=N)N)C(=O)O)C[C@@H]2CCCC[C@@H]21 (some centres unmarked) [CP-0365] (I: H-[dR]RP[Hyp]GFC[dTic][Oic]R-OH / II: H-[dR]CP[Hyp]GFS[dTic][Oic]-OH; linker I:7-II:2 via BMH; N-terminus and C-terminus assumed)		-	+	+		-	+	+	
